One series relates to normal human naïve PBMCs. Kind of series: Naive PBMC viability (MTS). The series is classed as cell-based. The settings on record: 72 hours, concentrations giving complete loss of JAK3-dependent cell viability (0-10 μM). The procedure:
FIGS. 2A-2F. Selective inhibition of JAK3 by EP009 results in loss of JAK3-dependent tumor cell line viability with no detectable off-target effects in key cell types. (A) Chemical structure of EP009 (M.W. 224.34). (B) Kit225 or (C) BaF/3 cells cultured in the presence of IL-2 or IL-3, respectively, were treated with vehicle (PBS; lane a) or increasing amounts of EP009 (0-50 μM; lanes b-h) for 12 hours. Cells were then lysed, clarified, and immunoprecipitated (IP) with anti-JAK3 (α-JAK3) or anti-JAK2 (α-JAK2), and subjected to Western blot (WB) analysis with anti-phosphotyrosine (α-pY). Blots were stripped and reprobed with corresponding antibody to verify equivalent protein loading. […] (E) Kit225 or BaF/3 cells were cultured with increasing amounts of EP009 (0-10 μM) for 72 hours and cell viability measured with the MTS tetrazolium salt assay. Values represent mean absorbance (OD490-OD650 nm) normalized to vehicle (PBS) treated control cells, while error bars represent the standard deviation (n=3). (F) HEK293, HEPG2, or naïve primary human PBMCs were cultured with increasing amounts of EP009 (0-10 μM) for 72 hours and cell viability measured with the MTS tetrazolium salt assay. Values represent mean absorbance (OD490-OD650 nm) normalized to vehicle (PBS) treated control cells, while error bars represent the standard deviation (n=3). […]

A further series relates to SUP-M2 cells. Kind of series: SUP-M2 cell viability (MTS). The series is classed as cell-based. The conditions noted are these: Homo sapiens; SUP-M2, 72 hours. The procedure: FIGS. 7A-7C. EP009 reduces ALCL cell viability through induction of caspase 3 mediated apoptosis. (A) SUP-M2, SU-DHL-1 or H2228 cells were cultured with increasing amounts of EP009 (0-10 μM) for 72 hours and cell viability measured with the MTS tetrazolium salt assay. Values represent mean absorbance (OD490-OD650 nm) normalized to vehicle (PBS) treated control cells, while error bars represent the standard deviation (n=3). (B) SU-DHL-1 cells were treated with vehicle (PBS) or increasing amounts of EP009 (0-50 μM) for 24 hours. Cells were then lysed, clarified, and subjected to Luminex multiplex analysis to detect activated caspase 3 and (C) cleaved PARP. Values represent MFI normalized to corresponding GAPDH MFI, while error bars represent the standard deviation (n=2). Representative data from three independent experiments are shown. Statistical significance was determined using Student's t-test. (*, p<0.05).
Cell viability was assessed with 3-(4,5-dimethylthiazol-2-yl)-5-(3-carboxymethoxyphenyl)-2-(4-sulfophenyl)-2H-tetrazolium salt (MTS) reagent (Promega) in triplicates according to the manufacturer's instructions. Three independent experiments were performed. The error bars represent standard deviation.

For a further series, the target named is BMPR2 (Homo sapiens, UniProt Q13873). The experiment in a line: Kinase panel: BMPR2. The series is classed as biochemical. The conditions noted are these: 10 μM EP009. As for the experimental part: (§1) Achieving JAK3 selectivity remains a significant challenge in the development of new small molecules for the treatment of cancer and immune-derived diseases. As such, the inventors employed cell-based screening assays of small-molecule libraries based upon the chemical scaffold of the established JAK3 inhibitor NC1153 (Stepkowski et al., J Immunol. (2005), 175(7):4236-4246) EP009 (FIG. 2A) was selected as a lead compound due to improved intrinsic stability (>95% purity in various solvents at 37° C. for 24 hours; FIG. 3) and high-degree of JAK3 selectivity. To test JAK3 versus JAK2 specificity of EP009, the IL-2/JAK3-dependent Kit225, and IL-3/JAK2-dependent BaF/3 cell lines were used. Kit225 and BaF/3 cells growing in the presence of IL-2 or IL-3, respectively, were treated with ascending concentrations of EP009 for 12 hours and cellular JAK3 and JAK2 tyrosine phosphorylation levels detected by Western blot analysis (FIGS. 2B and 2C). Following densitometric analysis, EP009 was determined to dose-dependently reduce IL-2-mediated JAK3 tyrosine phosphorylation with a cellular 50% inhibitory concentration (IC50) between 10 and 20 μM (FIG. 2B). […] To globally evaluate specificity, the inhibitory activity of EP009 was measured against a panel of protein kinases distributed throughout the kinome using the scanEDGE profiling service (KINOMEscan). […]

The next series has as its target BTK (Homo sapiens, UniProt Q06187). Kind of series: Kinase panel: BTK. The settings on record: 10 μM EP009. Type of series: biochemical. The procedure: as §1
The target in the next series is CHEK1 (Homo sapiens, UniProt O14757). The experiment in a line: Kinase panel: CHEK1. The series is classed as biochemical. The settings on record: 10 μM EP009. The procedure: as §1
The next series concerns the target VEGFR2 (Homo sapiens, UniProt P35968). Kind of series: Kinase panel: VEGFR2. The settings on record: 10 μM EP009. The series is classed as biochemical. As for the experimental part: as §1

As usually defined, the IC50 is the concentration that gives 50% inhibition. Read a low IC50 as inhibition by little substance.

Chain of CHEK1 (O14757 whole entry): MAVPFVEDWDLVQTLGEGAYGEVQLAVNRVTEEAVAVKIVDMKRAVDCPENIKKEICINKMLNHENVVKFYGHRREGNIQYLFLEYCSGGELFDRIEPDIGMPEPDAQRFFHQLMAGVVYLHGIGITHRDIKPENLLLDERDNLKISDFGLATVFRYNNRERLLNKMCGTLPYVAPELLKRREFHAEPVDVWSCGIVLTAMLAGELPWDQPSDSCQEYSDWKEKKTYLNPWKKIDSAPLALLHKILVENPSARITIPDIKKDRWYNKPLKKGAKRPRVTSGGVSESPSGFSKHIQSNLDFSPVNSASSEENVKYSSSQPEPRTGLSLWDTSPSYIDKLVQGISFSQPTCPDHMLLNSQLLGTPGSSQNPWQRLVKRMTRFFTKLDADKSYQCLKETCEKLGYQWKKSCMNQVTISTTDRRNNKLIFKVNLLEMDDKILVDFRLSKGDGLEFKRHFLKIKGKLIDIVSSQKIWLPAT
Chain of VEGFR2 (P35968 20-1356): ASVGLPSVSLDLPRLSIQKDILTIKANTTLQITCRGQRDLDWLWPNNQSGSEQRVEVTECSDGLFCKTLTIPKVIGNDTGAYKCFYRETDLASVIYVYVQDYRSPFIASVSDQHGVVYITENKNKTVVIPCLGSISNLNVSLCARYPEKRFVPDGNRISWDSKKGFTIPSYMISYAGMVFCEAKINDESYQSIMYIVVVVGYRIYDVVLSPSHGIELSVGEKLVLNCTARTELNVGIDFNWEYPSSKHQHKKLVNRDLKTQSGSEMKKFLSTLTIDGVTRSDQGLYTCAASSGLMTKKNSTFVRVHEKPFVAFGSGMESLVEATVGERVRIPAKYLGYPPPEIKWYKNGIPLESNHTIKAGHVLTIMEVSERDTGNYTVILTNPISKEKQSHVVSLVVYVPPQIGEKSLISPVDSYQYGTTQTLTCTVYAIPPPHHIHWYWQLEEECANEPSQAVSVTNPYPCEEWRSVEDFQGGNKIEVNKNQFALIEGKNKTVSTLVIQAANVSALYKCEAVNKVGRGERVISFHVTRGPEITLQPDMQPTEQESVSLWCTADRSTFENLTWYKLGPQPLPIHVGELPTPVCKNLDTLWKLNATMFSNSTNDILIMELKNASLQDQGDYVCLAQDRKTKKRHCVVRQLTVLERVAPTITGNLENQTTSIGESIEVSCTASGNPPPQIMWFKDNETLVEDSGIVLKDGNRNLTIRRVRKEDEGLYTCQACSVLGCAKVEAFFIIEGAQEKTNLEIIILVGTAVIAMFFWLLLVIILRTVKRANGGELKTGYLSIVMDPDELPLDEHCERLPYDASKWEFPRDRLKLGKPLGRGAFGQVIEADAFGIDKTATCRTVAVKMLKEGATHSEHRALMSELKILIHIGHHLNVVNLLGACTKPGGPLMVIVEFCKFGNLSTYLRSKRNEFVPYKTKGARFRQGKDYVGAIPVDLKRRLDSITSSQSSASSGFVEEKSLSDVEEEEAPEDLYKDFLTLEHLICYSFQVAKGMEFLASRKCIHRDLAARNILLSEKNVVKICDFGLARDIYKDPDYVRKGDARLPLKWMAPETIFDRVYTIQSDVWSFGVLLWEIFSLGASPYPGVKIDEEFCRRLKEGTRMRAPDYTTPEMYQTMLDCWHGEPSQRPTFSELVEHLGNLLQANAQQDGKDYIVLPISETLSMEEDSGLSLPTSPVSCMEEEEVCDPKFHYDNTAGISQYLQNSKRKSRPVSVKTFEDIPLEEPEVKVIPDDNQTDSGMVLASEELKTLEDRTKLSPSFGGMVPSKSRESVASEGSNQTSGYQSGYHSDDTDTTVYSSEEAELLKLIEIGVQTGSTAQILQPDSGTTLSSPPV
Chain of BTK (Q06187 whole entry): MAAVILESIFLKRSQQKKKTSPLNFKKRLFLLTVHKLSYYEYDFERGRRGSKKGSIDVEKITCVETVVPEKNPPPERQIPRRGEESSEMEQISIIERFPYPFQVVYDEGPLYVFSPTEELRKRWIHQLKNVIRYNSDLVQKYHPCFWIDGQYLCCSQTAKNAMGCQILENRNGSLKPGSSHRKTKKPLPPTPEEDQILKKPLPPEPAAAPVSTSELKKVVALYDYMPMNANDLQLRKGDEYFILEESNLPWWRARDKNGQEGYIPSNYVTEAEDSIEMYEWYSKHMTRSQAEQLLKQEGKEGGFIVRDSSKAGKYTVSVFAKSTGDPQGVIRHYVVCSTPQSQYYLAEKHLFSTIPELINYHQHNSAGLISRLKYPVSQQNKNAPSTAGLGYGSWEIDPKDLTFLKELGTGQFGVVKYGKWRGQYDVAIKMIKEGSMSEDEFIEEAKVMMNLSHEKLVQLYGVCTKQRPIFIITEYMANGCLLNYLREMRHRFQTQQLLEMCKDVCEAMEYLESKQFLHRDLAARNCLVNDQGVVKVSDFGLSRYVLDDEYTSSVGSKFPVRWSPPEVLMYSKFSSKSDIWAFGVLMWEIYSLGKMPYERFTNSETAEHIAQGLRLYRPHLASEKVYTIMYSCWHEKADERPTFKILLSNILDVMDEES
Chain of BMPR2 (Q13873 27-1038): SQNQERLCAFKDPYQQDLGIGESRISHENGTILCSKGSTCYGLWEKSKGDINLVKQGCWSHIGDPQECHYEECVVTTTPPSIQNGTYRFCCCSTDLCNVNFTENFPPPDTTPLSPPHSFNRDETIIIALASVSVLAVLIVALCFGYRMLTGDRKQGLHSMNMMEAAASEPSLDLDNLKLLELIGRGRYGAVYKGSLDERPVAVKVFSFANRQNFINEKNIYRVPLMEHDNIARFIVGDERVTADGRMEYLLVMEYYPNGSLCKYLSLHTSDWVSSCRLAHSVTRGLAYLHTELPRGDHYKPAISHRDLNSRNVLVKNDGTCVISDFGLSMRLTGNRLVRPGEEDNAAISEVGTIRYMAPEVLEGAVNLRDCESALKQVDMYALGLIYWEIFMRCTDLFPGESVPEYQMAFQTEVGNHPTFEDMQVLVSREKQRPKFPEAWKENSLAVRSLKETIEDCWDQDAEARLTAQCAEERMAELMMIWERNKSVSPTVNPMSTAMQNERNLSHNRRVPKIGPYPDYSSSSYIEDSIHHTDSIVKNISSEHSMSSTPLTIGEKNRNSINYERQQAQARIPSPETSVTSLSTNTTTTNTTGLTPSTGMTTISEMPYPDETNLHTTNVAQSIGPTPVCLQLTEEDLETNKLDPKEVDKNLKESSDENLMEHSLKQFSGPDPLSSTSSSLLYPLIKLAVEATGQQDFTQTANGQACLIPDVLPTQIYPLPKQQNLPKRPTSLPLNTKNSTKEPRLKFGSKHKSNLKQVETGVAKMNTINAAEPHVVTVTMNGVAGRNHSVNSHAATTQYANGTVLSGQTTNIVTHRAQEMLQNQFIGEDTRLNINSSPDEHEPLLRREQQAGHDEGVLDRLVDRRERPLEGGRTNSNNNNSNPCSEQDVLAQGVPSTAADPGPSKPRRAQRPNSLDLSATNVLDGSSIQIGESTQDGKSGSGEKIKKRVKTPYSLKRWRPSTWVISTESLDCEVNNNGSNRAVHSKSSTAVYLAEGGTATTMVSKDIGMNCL

For `C=C1CCCCCCCCCC(CO)C1=O` (stereo not drawn) [EP009, 2-(Hydroxymethyl)-12-methylenecyclododecanone], the “effect on normal human naïve PBMC viability” value in the series on normal human naïve PBMCs was “no detectable loss of cell viability”. It took 5 µM to reach half-maximal inhibition in the series on SUP-M2 cells (IC50). Further, the “Kinase Activity (% of Control)” value is 75 % of Control on BMPR2, 91 % of Control at BTK, 100 % of Control at CHEK1 and 100 % of Control on VEGFR2.

Source of the values: US9371265B2, “Compositions and methods related to inhibitors of JAK kinase” (EP PHARMA, INC., priority 2012, dated 2016).
